SMILES strings stand for the structures.

ATM, sequence (Q13315 whole entry, looked up): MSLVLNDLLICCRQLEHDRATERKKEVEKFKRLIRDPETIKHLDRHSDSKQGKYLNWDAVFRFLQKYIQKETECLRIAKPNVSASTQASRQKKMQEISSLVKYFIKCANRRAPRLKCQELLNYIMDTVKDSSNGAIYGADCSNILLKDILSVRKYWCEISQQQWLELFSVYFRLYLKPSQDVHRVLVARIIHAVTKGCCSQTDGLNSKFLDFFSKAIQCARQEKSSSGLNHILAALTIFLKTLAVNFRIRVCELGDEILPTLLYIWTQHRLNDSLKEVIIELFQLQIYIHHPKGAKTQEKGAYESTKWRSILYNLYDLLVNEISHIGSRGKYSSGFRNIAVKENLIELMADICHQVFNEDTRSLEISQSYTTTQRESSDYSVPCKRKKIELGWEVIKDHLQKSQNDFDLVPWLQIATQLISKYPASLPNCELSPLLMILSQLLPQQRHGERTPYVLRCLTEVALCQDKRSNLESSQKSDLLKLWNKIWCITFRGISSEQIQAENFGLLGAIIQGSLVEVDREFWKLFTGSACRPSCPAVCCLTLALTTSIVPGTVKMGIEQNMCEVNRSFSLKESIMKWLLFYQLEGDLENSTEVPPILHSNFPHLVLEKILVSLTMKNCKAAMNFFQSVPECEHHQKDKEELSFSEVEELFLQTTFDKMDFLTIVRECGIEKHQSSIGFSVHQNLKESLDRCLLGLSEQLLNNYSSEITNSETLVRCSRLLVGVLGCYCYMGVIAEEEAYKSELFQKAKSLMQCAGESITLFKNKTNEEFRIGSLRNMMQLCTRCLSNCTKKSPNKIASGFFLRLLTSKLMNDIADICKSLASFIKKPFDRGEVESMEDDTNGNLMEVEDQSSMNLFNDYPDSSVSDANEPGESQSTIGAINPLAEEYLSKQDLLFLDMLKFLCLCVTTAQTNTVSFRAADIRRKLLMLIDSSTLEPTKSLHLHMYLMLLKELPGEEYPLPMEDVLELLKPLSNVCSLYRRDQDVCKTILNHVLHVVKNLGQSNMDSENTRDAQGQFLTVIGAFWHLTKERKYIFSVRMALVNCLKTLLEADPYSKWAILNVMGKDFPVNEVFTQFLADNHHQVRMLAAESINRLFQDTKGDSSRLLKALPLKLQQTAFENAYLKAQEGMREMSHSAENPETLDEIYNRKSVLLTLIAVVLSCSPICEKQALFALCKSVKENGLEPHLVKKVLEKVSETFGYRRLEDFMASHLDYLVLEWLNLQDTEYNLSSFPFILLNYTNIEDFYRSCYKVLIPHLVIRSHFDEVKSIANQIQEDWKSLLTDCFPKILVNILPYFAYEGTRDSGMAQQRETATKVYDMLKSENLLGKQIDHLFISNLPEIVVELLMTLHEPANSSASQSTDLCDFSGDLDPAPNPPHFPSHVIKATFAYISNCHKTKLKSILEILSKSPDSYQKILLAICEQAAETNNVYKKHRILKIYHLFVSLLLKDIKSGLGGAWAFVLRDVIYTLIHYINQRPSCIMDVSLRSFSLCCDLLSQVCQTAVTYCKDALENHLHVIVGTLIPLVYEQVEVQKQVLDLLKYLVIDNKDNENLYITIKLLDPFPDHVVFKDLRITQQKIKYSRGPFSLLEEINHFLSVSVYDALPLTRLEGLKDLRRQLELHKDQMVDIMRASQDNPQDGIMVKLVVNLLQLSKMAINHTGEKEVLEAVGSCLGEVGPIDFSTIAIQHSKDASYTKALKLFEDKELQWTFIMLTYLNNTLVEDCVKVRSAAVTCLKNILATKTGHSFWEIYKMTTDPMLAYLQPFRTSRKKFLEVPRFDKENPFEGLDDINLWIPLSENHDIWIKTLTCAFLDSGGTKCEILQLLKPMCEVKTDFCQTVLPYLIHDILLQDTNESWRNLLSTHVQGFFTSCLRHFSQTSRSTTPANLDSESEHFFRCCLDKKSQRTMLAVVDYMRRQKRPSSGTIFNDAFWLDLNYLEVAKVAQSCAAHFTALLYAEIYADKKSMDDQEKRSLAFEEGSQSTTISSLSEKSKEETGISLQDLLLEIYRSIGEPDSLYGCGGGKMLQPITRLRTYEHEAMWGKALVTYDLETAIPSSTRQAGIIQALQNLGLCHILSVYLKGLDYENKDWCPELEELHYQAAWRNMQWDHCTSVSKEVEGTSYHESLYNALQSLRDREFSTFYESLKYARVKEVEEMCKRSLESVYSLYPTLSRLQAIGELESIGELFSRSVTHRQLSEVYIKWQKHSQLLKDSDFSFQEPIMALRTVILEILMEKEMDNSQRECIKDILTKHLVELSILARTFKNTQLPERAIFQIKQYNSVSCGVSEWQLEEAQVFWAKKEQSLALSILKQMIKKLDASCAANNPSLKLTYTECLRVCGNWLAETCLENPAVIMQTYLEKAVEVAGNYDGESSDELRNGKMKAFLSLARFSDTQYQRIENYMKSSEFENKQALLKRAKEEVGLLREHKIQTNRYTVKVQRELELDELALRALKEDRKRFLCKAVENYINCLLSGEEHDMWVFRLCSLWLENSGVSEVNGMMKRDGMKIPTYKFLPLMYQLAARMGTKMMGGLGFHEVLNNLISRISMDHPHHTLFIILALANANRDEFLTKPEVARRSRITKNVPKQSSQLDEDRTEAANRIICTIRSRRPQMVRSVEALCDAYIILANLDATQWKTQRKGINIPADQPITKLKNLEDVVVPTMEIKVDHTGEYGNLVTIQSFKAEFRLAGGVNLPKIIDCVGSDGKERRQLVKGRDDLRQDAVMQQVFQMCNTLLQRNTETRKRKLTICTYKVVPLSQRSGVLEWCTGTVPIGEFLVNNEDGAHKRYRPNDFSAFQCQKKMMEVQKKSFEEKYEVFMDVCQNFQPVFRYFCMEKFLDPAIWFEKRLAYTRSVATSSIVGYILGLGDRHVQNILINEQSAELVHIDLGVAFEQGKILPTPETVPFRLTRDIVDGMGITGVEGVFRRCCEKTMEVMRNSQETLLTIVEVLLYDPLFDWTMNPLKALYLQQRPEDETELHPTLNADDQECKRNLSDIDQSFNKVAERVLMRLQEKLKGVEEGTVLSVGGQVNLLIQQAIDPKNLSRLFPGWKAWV

This assay addresses ATM (Homo sapiens (Human), UniProt Q13315). The assay can be described thus: biochemical. Type of assay: biochemical. Particulars: read-out: ATM IC50. The source says: Assay a): ATM Biochemical Potency
Data was collected by Caliper.
For orientation: IC50 means the concentration needed to halve the response being measured. In the case of `CC(C)n1c(=O)n(C)c2nnc3ccc(-c4ccc([C@@H](C)OCCN5CC[C@@H](S(C)(=O)=O)C5)nc4)cc3c21` [Example 79, 1-isopropyl-3-methyl-8-(6-((R)-1-(2-((R)-3-(methylsulfonyl)pyrrolidin-1-yl)ethoxy)ethyl)pyridin-3-yl)-1H-imidazo[4,5-c]cinnolin-2(3H)-one], the IC50 was found to be 37 nM.
Regarding `C[C@@H](OCCN1CCC2(CC1)CC2)c1ccc(-c2cc3c(cc2F)nnc2c3n(C3CCOCC3)c(=O)n2C)cn1` [Example 154, (R)-8-(6-(1-(2-(6-azaspiro[2.5]octan-6-yl)ethoxy)ethyl)pyridin-3-yl)-7-fluoro-3-methyl-1-(tetrahydro-2H-pyran-4-yl)-1H-imidazo[4,5-c]cinnolin-2(3H)-one], the IC50 was determined as 3.6 nM.
Take `Cn1c(=O)n(C2COC2)c2c3cc(-c4ccc(COCCN5CCC(F)CC5)nc4)ccc3nnc21` [Example 179, 8-(6-((2-(4-fluoropiperidin-1-yl)ethoxy)methyl)pyridin-3-yl)-3-methyl-1-(oxetan-3-yl)-1H-imidazo[4,5-c]cinnolin-2(3H)-one]: the IC50 came to 729 nM.
Regarding `CC(C)n1c(=O)n(C)c2nnc3ccc(-c4ccc([C@@H](C)OCCN5CCC(C)(C)C5)nc4)cc3c21` [Example 61, (R)-8-(6-(1-(2-(3,3-dimethylpyrrolidin-1-yl)ethoxy)ethyl)pyridin-3-yl)-1-isopropyl-3-methyl-1H-imidazo[4,5-c]cinnolin-2(3H)-one], the IC50 came to 3.4 nM.
In the case of `CC(C)C(OCCN1CCCC1)c1ccc(-c2ccc3nnc4c(c3c2)n(C(C)C)c(=O)n4C)cn1` (stereo not shown) [Example 221, 1-isopropyl-3-methyl-8-(6-(2-methyl-1-(2-(pyrrolidin-1-yl)ethoxy)propyl)pyridin-3-yl)-1H-imidazo[4,5-c]cinnolin-2(3H)-one], the IC50 was 156 nM.
For `CC(C)n1c(=O)n(C)c2nnc3ccc(-c4ccc([C@H](C)OCCN5CCC(F)CC5)nc4)cc3c21` [Example 68, (S)-8-(6-(1-(2-(4-fluoropiperidin-1-yl)ethoxy)ethyl)pyridin-3-yl)-1-isopropyl-3-methyl-1H-imidazo[4,5-c]cinnolin-2(3H)-one], the IC50 came to 160 nM.
On to `C[C@@H](OCCN1CCC(C)(C#N)C1)c1ccc(-c2ccc3nnc4c(c3c2)n(C2CCOCC2)c(=O)n4C)cn1` (stereo partly drawn) [Example 130, 3-methyl-1-(2-((R)-1-(5-(3-methyl-2-oxo-1-(tetrahydro-2H-pyran-4-yl)-2,3-dihydro-1H-imidazo[4.5-c]cinnolin-8-yl)pyridin-2-yl)ethoxy)ethyl) pyrrolidine-3-carbonitrile], for which the IC50 is 26 nM.
For `CC(C)n1c(=O)n(C)c2nnc3cc(F)c(-c4ccc(COCCN5CCC(C)(C)C5)nc4)cc3c21` [Example 132, 8-(6-((2-(3,3-dimethylpyrrolidin-1-yl)ethoxy)methyl)pyridin-3-yl)-7-fluoro-1-isopropyl-3-methyl-1H-imidazo[4,5-c]cinnolin-2(3H)-one], the IC50 stood at 22 nM.
Turning to `C[C@H]1CCN(CCO[C@H](C)c2ccc(-c3ccc4nnc5c(c4c3)n(C3CCOCC3)c(=O)n5C)cn2)C1` [Example 126, 3-methyl-8-(6-((R)-1-(2-((S)-3-methylpyrrolidin-1-yl)ethoxy)ethyl)pyridin-3-yl)-1-(tetrahydro-2H-pyran-4-yl)-1H-imidazo[4,5-c]cinnolin-2(3H)-one], the IC50 is 20 nM.
For `CC(C)n1c(=O)n(C)c2nnc3ccc(-c4ccc(COCCN5CCC[C@H]5C)nc4)cc3c21` [Example 35, (R)-1-isopropyl-3-methyl-8-(6-((2-(2-methylpyrrolidin-1-yl)ethoxy)methyl)pyridin-3-yl)-1H-imidazo[4,5-c]cinnolin-2(3H)-one], the IC50 came to 43 nM.
In the case of `CC(C)n1c(=O)n(C)c2nnc3ccc(-c4ccc([C@@H](C)OCCN5CCC6(CCO6)CC5)nc4)cc3c21` [Example 82, (R)-8-(6-(1-(2-(1-oxa-7-azaspiro[3.5]nonan-7-yl)ethoxy)ethyl)pyridin-3-yl)-1-isopropyl-3-methyl-1H-imidazo[4,5-c]cinnolin-2(3H)-one] it was 3.4 nM; in that of `CC(C)n1c(=O)n(C)c2nnc3ccc(-c4ccc(COCCN5CCC6(CC6)C5)nc4)cc3c21` [Example 26, 8-(6-((2-(5-azaspiro[2.4]heptan-5-yl)ethoxy)methyl)pyridin-3-yl)-1-isopropyl-3-methyl-1H-imidazo[4,5-c]cinnolin-2(3H)-one], 14 nM; in that of `CC(C)n1c(=O)n(C)c2nnc3ccc(-c4ccc(COC5CCN(C)CC5)nc4)cc3c21` [Example 7, 1-isopropyl-3-methyl-8-(6-(((1-methylpiperidin-4-yl)oxy)methyl)pyridin-3-yl)-1H-imidazo[4,5-c]cinnolin-2(3H)-one], 227 nM.
Take `CC(C)O[C@@H]1CCN(CCO[C@H](C)c2ccc(-c3ccc4nnc5c(c4c3)n(C(C)C)c(=O)n5C)cn2)C1` [Example 93, 8-(6-((R)-1-(2-((R)-3-isopropoxypyrrolidin-1-yl)ethoxy)ethyl)pyridin-3-yl)-1-isopropyl-3-methyl-1H-imidazo[4,5-c]cinnolin-2(3H)-one]: the IC50 turned out to be 4.9 nM.
Turning to `CC(C)n1c(=O)n(C)c2nnc3ccc(-c4ccc([C@@H](C)OCCN5CCC(C(F)(F)F)CC5)nc4)cc3c21` [Example 84, (R)-1-isopropyl-3-methyl-8-(6-(1-(2-(4-(trifluoromethyl)piperidin-1-yl)ethoxy)ethyl)pyridin-3-yl)-1H-imidazo[4,5-c]cinnolin-2(3H)-one], the IC50 came out at 1.9 nM.
Turning to `Cn1c(=O)n(C2CCOCC2)c2c3cc(-c4ccc(COCCN5CC[C@H](OC(F)F)C5)nc4)ccc3nnc21` [Example 100, (S)-8-(6-((2-(3-(difluoromethoxy)pyrrolidin-1-yl)ethoxy)methyl)pyridin-3-yl)-3-methyl-1-(tetrahydro-2H-pyran-4-yl)-1H-imidazo[4,5-c]cinnolin-2(3H)-one], the IC50 amounted to 16 nM.
Then `CO[C@H]1C[C@H](n2c(=O)n(C)c3nnc4ccc(-c5ccc([C@@H](C)OCCN6CCC7(CC6)CC7)nc5)cc4c32)C1` [Example 164, 8-(6-((R)-1-(2-(6-azaspiro[2.5]octan-6-yl)ethoxy)ethyl)pyridin-3-yl)-1-(trans-3-methoxycyclobutyl)-3-methyl-1H-imidazo[4,5-c]cinnolin-2(3H)-one], with 2.2 nM; and `C[C@@H](OCCN1CCC(C2COC2)CC1)c1ccc(-c2ccc3nnc4c(c3c2)n(C2CCOCC2)c(=O)n4C)cn1` [Example 128, (R)-3-methyl-8-(6-(1-(2-(4-(oxetan-3-yl)piperidin-1-yl)ethoxy)ethyl)pyridin-3-yl)-1-(tetrahydro-2H-pyran-4-yl)-1H-imidazo[4,5-c]cinnolin-2(3H)-one], with 4.6 nM.
Turning to `CC(C)n1c(=O)n(C)c2nnc3ccc(-c4ccc(COCCN5CCC[C@@H]5C)nc4)cc3c21` [Example 29, (S)-1-isopropyl-3-methyl-8-(6-((2-(2-methylpyrrolidin-1-yl)ethoxy)methyl)pyridin-3-yl)-1H-imidazo[4,5-c]cinnolin-2(3H)-one], the IC50 was determined as 68 nM.
As for `CC(C)n1c(=O)n(C)c2nnc3ccc(-c4ccc(COC5CN(C)C5)nc4)cc3c21` [Example 15, 1-isopropyl-3-methyl-8-(6-(((1-methylazetidin-3-yl)oxy)methyl)pyridin-3-yl)-1H-imidazo[4,5-c]cinnolin-2(3H)-one], the IC50 stood at 134 nM.
`Cn1c(=O)n([C@H]2CCCOC2)c2c3cc(-c4ccc(COCCN5CC6CC6C5)nc4)ccc3nnc21` (stereo partly drawn) [Example 183, 8-(6-((2-(3-azabicyclo[3.1.0]hexan-3-yl)ethoxy)methyl)pyridin-3-yl)-3-methyl-1-((S)-tetrahydro-2H-pyran-3-yl)-1H-imidazo[4,5-c]cinnolin-2(3H)-one]: the IC50 came to 20 nM.
Take `CC(C)n1c(=O)n(C)c2nnc3cc(F)c(-c4ccc([C@@H](C)OCCN5CCC(C)(C#N)C5)nc4)cc3c21` (stereo partly drawn) [Example 147, 1-(2-((R)-1-(5-(7-fluoro-1-isopropyl-3-methyl-2-oxo-2,3-dihydro-1H-imidazo[4,5-c]cinnolin-8-yl)pyridin-2-yl)ethoxy)ethyl)-3-methylpyrrolidine-3-carbonitrile]: the IC50 was found to be 23 nM.
As to `CC(CN1CC2CC2C1)OCc1ccc(-c2ccc3nnc4c(c3c2)n(C(C)C)c(=O)n4C)cn1` (stereo not shown) [Example 21, 8-(6-(((1-(3-azabicyclo[3.1.0]hexan-3-yl)propan-2-yl)oxy)methyl)pyridin-3-yl)-1-isopropyl-3-methyl-1H-imidazo[4,5-c]cinnolin-2(3H)-one], the IC50 worked out at 139 nM.
On to `C[C@@H](OCCN1CC2(COC2)C1)c1ccc(-c2ccc3nnc4c(c3c2)n(C2CCOCC2)c(=O)n4C)cn1` [Example 127, (R)-8-(6-(1-(2-(2-oxa-6-azaspiro[3.3]heptan-6-yl)ethoxy)ethyl)pyridin-3-yl)-3-methyl-1-(tetrahydro-2H-pyran-4-yl)-1H-imidazo[4,5-c]cinnolin-2(3H)-one], for which the IC50 is 13 nM.
Then `CC(OCCN1CC2C(C1)C2(F)F)c1ccc(-c2ccc3nnc4c(c3c2)n(C(C)C)c(=O)n4C)cn1` (stereo in doubt) [Example 71, 8-(6-((1R)-1-(2-(6,6-difluoro-3-azabicyclo[3.1.0]hexan-3-yl)ethoxy)ethyl)pyridin-3-yl)-1-isopropyl-3-methyl-1H-imidazo[4,5-c]cinnolin-2(3H)-one], with 9.3 nM; and `CC(C)n1c(=O)n(C)c2nnc3ccc(-c4ccc([C@H](C)OCCN5CCC(F)(F)CC5)nc4)cc3c21` [Example 74, (S)-8-(6-(1-(2-(4,4-difluoropiperidin-1-yl)ethoxy)ethyl)pyridin-3-yl)-1-isopropyl-3-methyl-1H-imidazo[4,5-c]cinnolin-2(3H)-one], with 179 nM.
In the case of `C[C@@H](OCCN1CCC(C)(C)C1)c1ccc(-c2ccc3nnc4c(c3c2)n(C2CCOCC2)c(=O)n4C)cn1` [Example 111, (R)-8-(6-(1-(2-(3,3-dimethylpyrrolidin-1-yl)ethoxy)ethyl)pyridin-3-yl)-3-methyl-1-(tetrahydro-2H-pyran-4-yl)-1H-imidazo[4,5-c]cinnolin-2(3H)-one], the IC50 amounted to 12 nM.
Take `CC(C)n1c(=O)n(C)c2nnc3ccc(-c4ccc(COCCCN(C)C)nc4)cc3c21` [Example 8, 8-(6-((3-(dimethylamino)propoxy)methyl)pyridin-3-yl)-1-isopropyl-3-methyl-1H-imidazo[4,5-c]cinnolin-2(3H)-one]: the IC50 came to 98 nM.

The record behind these values is US20240207263A1, “SELECTIVE MODULATORS OF ATAXIA TELA[…] (ATM) KINASE AND USES THEREOF” (priority 2021, published 2024).
